Test results reported in patent publication US9850283B2, “Macrocyclic inhibitors of the PD-1/PD-L1 and CD80(B7-1)/PD-L1 protein/protein interactions” (BRISTOL-MYERS SQUIBB COMPANY, priority 2013, dated 2017).
Like-named read-outs stand apart in the source and are kept apart here. Positions of bridges follow the written chain, without caps; N, C: chain ends. Non-standard residues stand in square brackets, D forms with d. Residues, ends and D or L forms follow the SMILES beside them. Hyp = O=C(O)[C@@H]1C[C@@H](O)CN1; NMeNle = CCCC[C@H](NC)C(=O)O; NMeA = CN[C@@H](C)C(=O)O; Orn = NCCC[C@H](N)C(=O)O; Dab = NCC[C@H](N)C(=O)O; Dap = NC[C@H](N)C(=O)O

Key:
Human PD-L1/PD-1 = molecular target: T1, Human PD-L1/PD-1 (Homo sapiens, UniProt Q9NZQ7); experiment: HTRF PD-1-Ig/PD-L1-His binding assay (human PD-L1)
T1 construct: made in house; host or cells: HEK293T
T1 sequence (Q9NZQ7 with tags, fused parts or gaps): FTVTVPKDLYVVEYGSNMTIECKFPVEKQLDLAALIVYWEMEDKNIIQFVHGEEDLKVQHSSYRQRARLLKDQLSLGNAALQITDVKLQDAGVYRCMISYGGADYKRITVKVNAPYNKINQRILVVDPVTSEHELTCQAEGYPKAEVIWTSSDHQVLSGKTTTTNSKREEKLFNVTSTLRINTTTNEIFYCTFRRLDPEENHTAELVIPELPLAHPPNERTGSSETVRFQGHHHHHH
Method in brief: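 Soluble PD-1-Ig binding to PD-L1-His measured by HTRF in dPBS with 0.1% BSA and 0.05% Tween-20. Detection used europium cryptate anti-Ig antibody (1 nM final) and APC anti-His antibody (20 nM final) added on top of the binding reaction.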

[1] = molecular target: T2, LK35.2-hPD-L1 cells / PE-labeled PD-1-Ig (Homo sapiens, UniProt Q9NZQ7); experiment: LK35.2-hPD-L1 cell binding high-content screening assay; format: cell-based; conditions: cell binding assay, cell line not given
T2 construct: expressed in transfected cells; host or cells: LK35.2 mouse B cell line
T2 sequence (Q9NZQ7 19-290): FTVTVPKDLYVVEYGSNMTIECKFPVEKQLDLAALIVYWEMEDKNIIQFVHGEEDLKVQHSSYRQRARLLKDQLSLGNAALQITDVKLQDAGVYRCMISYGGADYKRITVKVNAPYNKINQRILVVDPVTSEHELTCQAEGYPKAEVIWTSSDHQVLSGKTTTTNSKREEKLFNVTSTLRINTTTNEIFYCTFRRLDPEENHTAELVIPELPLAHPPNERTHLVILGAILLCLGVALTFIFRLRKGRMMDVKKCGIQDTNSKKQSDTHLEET
Method in brief: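 Compound effect on PD-1/PD-L1 binding is measured by imaging cell-associated phycoerythrin signal. Human PD-1-Ig (PE on Ig tag, 1 nM final) is applied with compound to a murine B cell line overexpressing human PD-L1 for 1 h at 37 °C in serum-containing RPMI.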

[2] = cluster symbol, read-out: HTRF IC50 cluster
[3] = cluster symbol, read-out: CBA IC50 cluster

| SMILES | IC50 (Human PD-L1/PD-1; [2]) [nM] | IC50 [1, 3] [nM] | IC50 (Human PD-L1/PD-1; value given instead of cluster, read-out: HTRF IC50 value) [nM] | IC50 ([1]; value given instead of cluster, read-out: CBA IC50 value) [nM] |
| --- | --- | --- | --- | --- |
| CCCC[C@H]1C(=O)N(C)[C@@H](CCCC)C(=O)N[C@@H](CCC(=O)O)C(=O)N[C@H](C(=O)NCC(N)=O)CSCC(=O)N[C@@H](Cc2ccc(O)cc2)C(=O)N(C)[C@@H](C)C(=O)N[C@@H](CCN)C(=O)N2CCC[C@H]2C(=O)N[C@@H](Cc2c[nH]cn2)C(=O)N[C@@H](CCC(=O)O)C(=O)N2C[C@H](O)C[C@H]2C(=O)N[C@@H](Cc2c[nH]c3ccccc23)C(=O)N[C@@H](CO)C(=O)N[C@@H](Cc2c[nH]c3ccccc23)C(=O)N1C [Example 5111] ({CH2CO}-Y[NMeA][Dab]PHE[Hyp]WSW[NMeNle][NMeNle]ECG-NH2; thioether N-14) | 6.76 to 30.3 | 4.78 to 72.9 |  |  |
| CCCC[C@H]1C(=O)N(C)[C@@H](CCCC)C(=O)N[C@@H](CCC(=O)O)C(=O)N[C@H](C(=O)NCC(N)=O)CSCC(=O)N[C@@H](Cc2ccc(O)cc2)C(=O)N(C)[C@@H](C)C(=O)N[C@@H](CCN)C(=O)N2CCC[C@H]2C(=O)N[C@@H](Cc2c[nH]cn2)C(=O)N[C@@H](CCC(=O)O)C(=O)N2C[C@H](O)C[C@H]2C(=O)N[C@@H](Cc2c[nH]c3ccccc23)C(=O)N[C@@H](CCCCN)C(=O)N[C@@H](Cc2c[nH]c3ccccc23)C(=O)N1C [Example 5112] ({CH2CO}-Y[NMeA][Dab]PHE[Hyp]WKW[NMeNle][NMeNle]ECG-NH2; thioether N-14) | 0.385 to 6.74 | 0.158 to 4.71 |  |  |
| CCCC[C@H]1C(=O)N(C)[C@@H](CCCC)C(=O)N[C@@H](CCCNC(=N)N)C(=O)N[C@H](C(=O)NCC(N)=O)CSCC(=O)N[C@@H](Cc2ccc(O)cc2)C(=O)N(C)[C@@H](C)C(=O)N[C@@H](CCCN)C(=O)N2CCC[C@H]2C(=O)N[C@@H](Cc2c[nH]cn2)C(=O)N[C@@H](CCC(=O)O)C(=O)N2C[C@H](O)C[C@H]2C(=O)N[C@@H](Cc2c[nH]c3ccccc23)C(=O)N[C@@H](CO)C(=O)N[C@@H](Cc2c[nH]c3ccccc23)C(=O)N1C [Example 5113] ({CH2CO}-Y[NMeA][Orn]PHE[Hyp]WSW[NMeNle][NMeNle]RCG-NH2; thioether N-14) | 0.385 to 6.74 | 0.158 to 4.71 |  |  |
| CCCC[C@H]1C(=O)N(C)[C@@H](CCCC)C(=O)N[C@@H](CCCN)C(=O)N[C@H](C(=O)NCC(N)=O)CSCC(=O)N[C@@H](Cc2ccc(O)cc2)C(=O)N(C)[C@@H](C)C(=O)N[C@@H](CC(=O)O)C(=O)N2CCC[C@H]2C(=O)N[C@@H](Cc2c[nH]cn2)C(=O)N[C@@H](CCC(N)=O)C(=O)N2C[C@H](O)C[C@H]2C(=O)N[C@@H](Cc2c[nH]c3ccccc23)C(=O)N[C@@H](CO)C(=O)N[C@@H](Cc2c[nH]c3ccccc23)C(=O)N1C [Example 5114] ({CH2CO}-Y[NMeA]DPHQ[Hyp]WSW[NMeNle][NMeNle][Orn]CG-NH2; thioether N-14) | 0.385 to 6.74 | 0.158 to 4.71 |  |  |
| CCCC[C@H]1C(=O)N(C)[C@@H](CCCC)C(=O)N[C@@H](CC(C)C)C(=O)N[C@H](C(=O)NCC(N)=O)CSCC(=O)N[C@@H](Cc2ccc(O)cc2)C(=O)N(C)[C@@H](C)C(=O)N[C@@H](CC(N)=O)C(=O)N2CCC[C@H]2C(=O)N[C@@H](CO)C(=O)N[C@@H](CCC(N)=O)C(=O)N2C[C@H](O)C[C@H]2C(=O)N[C@@H](Cc2c[nH]c3ccccc23)C(=O)N[C@@H](CO)C(=O)N[C@@H](Cc2c[nH]c3ccccc23)C(=O)N1C [Example 5115] ({CH2CO}-Y[NMeA]NPSQ[Hyp]WSW[NMeNle][NMeNle]LCG-NH2; thioether N-14) | 0.385 to 6.74 | 0.158 to 4.71 |  |  |
| CCCC[C@H]1C(=O)N(C)[C@@H](CCCC)C(=O)N[C@@H](CO)C(=O)N[C@H](C(=O)NCC(N)=O)CSCC(=O)N[C@@H](Cc2ccc(O)cc2)C(=O)N(C)[C@@H](C)C(=O)N[C@@H](CO)C(=O)N2CCC[C@H]2C(=O)N[C@@H](CO)C(=O)N[C@@H](CC(C)C)C(=O)N2C[C@H](O)C[C@H]2C(=O)N[C@@H](Cc2c[nH]c3ccccc23)C(=O)N[C@@H](CO)C(=O)N[C@@H](Cc2c[nH]c3ccccc23)C(=O)N1C [Example 5116] ({CH2CO}-Y[NMeA]SPSL[Hyp]WSW[NMeNle][NMeNle]SCG-NH2; thioether N-14) | 0.385 to 6.74 | 4.78 to 72.9 |  |  |
| CCCC[C@H]1C(=O)N(C)[C@@H](CCCC)C(=O)N[C@@H](CO)C(=O)N[C@H](C(=O)NCC(N)=O)CSCC(=O)N[C@@H](Cc2ccc(O)cc2)C(=O)N(C)[C@@H](C)C(=O)N[C@@H](CC(N)=O)C(=O)N2CCC[C@H]2C(=O)N[C@@H](CO)C(=O)N[C@@H](CC(C)C)C(=O)N2C[C@H](O)C[C@H]2C(=O)N[C@@H](Cc2c[nH]c3ccccc23)C(=O)N[C@@H](CO)C(=O)N[C@@H](Cc2c[nH]c3ccccc23)C(=O)N1C [Example 5118] ({CH2CO}-Y[NMeA]NPSL[Hyp]WSW[NMeNle][NMeNle]SCG-NH2; thioether N-14) | 0.385 to 6.74 | 0.158 to 4.71 |  |  |
| CCCC[C@H]1C(=O)N(C)[C@@H](CCCC)C(=O)N[C@@H](CO)C(=O)N[C@H](C(=O)NCC(N)=O)CSCC(=O)N[C@@H](Cc2ccc(O)cc2)C(=O)N(C)[C@@H](C)C(=O)N[C@@H](CCN)C(=O)N2CCC[C@H]2C(=O)N[C@@H](CO)C(=O)N[C@@H](CCC(=O)O)C(=O)N2C[C@H](O)C[C@H]2C(=O)N[C@@H](Cc2c[nH]c3ccccc23)C(=O)N[C@@H](CO)C(=O)N[C@@H](Cc2c[nH]c3ccccc23)C(=O)N1C [Example 5119] ({CH2CO}-Y[NMeA][Dab]PSE[Hyp]WSW[NMeNle][NMeNle]SCG-NH2; thioether N-14) | 0.385 to 6.74 | 4.78 to 72.9 |  |  |
| CCCC[C@H]1C(=O)N(C)[C@@H](CCCC)C(=O)N[C@@H](CCCCN)C(=O)N[C@H](C(=O)NCC(N)=O)CSCC(=O)N[C@@H](Cc2ccc(O)cc2)C(=O)N(C)[C@@H](C)C(=O)N[C@@H](CC(=O)O)C(=O)N2CCC[C@H]2C(=O)N[C@@H](Cc2c[nH]cn2)C(=O)N[C@@H](CCC(N)=O)C(=O)N2C[C@H](O)C[C@H]2C(=O)N[C@@H](Cc2c[nH]c3ccccc23)C(=O)N[C@@H](CO)C(=O)N[C@@H](Cc2c[nH]c3ccccc23)C(=O)N1C [Example 5120] ({CH2CO}-Y[NMeA]DPHQ[Hyp]WSW[NMeNle][NMeNle]KCG-NH2; thioether N-14) | 0.385 to 6.74 | 0.158 to 4.71 |  |  |
| CCCC[C@H]1C(=O)N(C)[C@@H](CCCC)C(=O)N[C@@H](CO)C(=O)N[C@H](C(=O)NCC(N)=O)CSCC(=O)N[C@@H](Cc2ccc(O)cc2)C(=O)N(C)[C@@H](C)C(=O)N[C@@H](CC(N)=O)C(=O)N2CCC[C@H]2C(=O)N[C@@H](Cc2c[nH]cn2)C(=O)N[C@@H](CCC(N)=O)C(=O)N2C[C@H](O)C[C@H]2C(=O)N[C@@H](Cc2c[nH]c3ccccc23)C(=O)N[C@@H](CO)C(=O)N[C@@H](Cc2c[nH]c3ccccc23)C(=O)N1C [Example 5121] ({CH2CO}-Y[NMeA]NPHQ[Hyp]WSW[NMeNle][NMeNle]SCG-NH2; thioether N-14) | 6.76 to 30.3 | 4.78 to 72.9 |  |  |
| CCCC[C@H]1C(=O)N(C)[C@@H](CCCC)C(=O)N[C@@H](CC(C)C)C(=O)N[C@H](C(=O)NCC(N)=O)CSCC(=O)N[C@@H](Cc2ccc(O)cc2)C(=O)N(C)[C@@H](C)C(=O)N[C@@H](CC(N)=O)C(=O)N2CCC[C@H]2C(=O)N[C@@H](Cc2c[nH]cn2)C(=O)NCC(=O)N2C[C@H](O)C[C@H]2C(=O)N[C@@H](Cc2c[nH]c3ccccc23)C(=O)N[C@@H](CO)C(=O)N[C@@H](Cc2c[nH]c3ccccc23)C(=O)N1C [Example 5122] ({CH2CO}-Y[NMeA]NPHG[Hyp]WSW[NMeNle][NMeNle]LCG-NH2; thioether N-14) |  |  | 34.8 | 134 |
| CCCC[C@H]1C(=O)N(C)[C@@H](CCCC)C(=O)N[C@@H](CCCNC(=N)N)C(=O)N[C@H](C(=O)NCC(N)=O)CSCC(=O)N[C@@H](Cc2ccc(O)cc2)C(=O)N(C)[C@@H](C)C(=O)N[C@@H](CN)C(=O)N2CCC[C@H]2C(=O)N[C@@H](Cc2c[nH]cn2)C(=O)N[C@@H](CCC(=O)O)C(=O)N2C[C@H](O)C[C@H]2C(=O)N[C@@H](Cc2c[nH]c3ccccc23)C(=O)N[C@@H](CO)C(=O)N[C@@H](Cc2c[nH]c3ccccc23)C(=O)N1C [Example 5123] ({CH2CO}-Y[NMeA][Dap]PHE[Hyp]WSW[NMeNle][NMeNle]RCG-NH2; thioether N-14) | 6.76 to 30.3 | 4.78 to 72.9 |  |  |
| CCCC[C@H]1C(=O)N(C)[C@@H](CCCC)C(=O)N[C@@H](CCCNC(=N)N)C(=O)N[C@H](C(=O)NCC(N)=O)CSCC(=O)N[C@@H](Cc2ccc(O)cc2)C(=O)N(C)[C@@H](C)C(=O)N[C@@H](CCCCN)C(=O)N2CCC[C@H]2C(=O)N[C@@H](Cc2c[nH]cn2)C(=O)N[C@@H](CCC(=O)O)C(=O)N2C[C@H](O)C[C@H]2C(=O)N[C@@H](Cc2c[nH]c3ccccc23)C(=O)N[C@@H](CO)C(=O)N[C@@H](Cc2c[nH]c3ccccc23)C(=O)N1C [Example 5124] ({CH2CO}-Y[NMeA]KPHE[Hyp]WSW[NMeNle][NMeNle]RCG-NH2; thioether N-14) | 0.385 to 6.74 | 0.158 to 4.71 |  |  |
| CCCC[C@H]1C(=O)N(C)[C@@H](CCCC)C(=O)NCC(=O)N[C@H](C(=O)NCC(N)=O)CSCC(=O)N[C@@H](Cc2ccc(O)cc2)C(=O)N(C)[C@@H](C)C(=O)N[C@@H](CC(N)=O)C(=O)N2CCC[C@H]2C(=O)N[C@@H](Cc2c[nH]cn2)C(=O)N[C@@H](CCC(N)=O)C(=O)N2C[C@H](O)C[C@H]2C(=O)N[C@@H](Cc2c[nH]c3ccccc23)C(=O)N[C@@H](CO)C(=O)N[C@@H](Cc2c[nH]c3ccccc23)C(=O)N1C [Example 5125] ({CH2CO}-Y[NMeA]NPHQ[Hyp]WSW[NMeNle][NMeNle]GCG-NH2; thioether N-14) | 0.385 to 6.74 | 4.78 to 72.9 |  |  |
